Laboratory results from patent US12398117B2, “Heteroarylamidopyridinol derivative and pharmaceutical composition comprising same as active ingredient for prevention or treatment of autoimmune disease” (INNOVO THERAPEUTICS INC., priority 2019, dated 2025).

How the values were obtained:
[1] = test system: adhesion of intestinal epithelial cells (HT-29) and monocytic cells (U937) induced by TNF-α; assay: Inhibition of TNF-α-induced adhesion of monocytes and intestinal epithelial cells; type: cell-based, human; conditions: Homo sapiens
Procedure: HT-29 human colon cancer-derived epithelial cells and U937 human-derived monocytes were cultured in RPMI 1640 medium containing 10% FBS and 1% penicillin/streptomycin (PS) in a 37° C., 5% CO2 incubator. When the cells grew more than 80% of the bottom area of the culture flask, they were passaged at a ratio of 1:3 and used in this experiment. HT-29 cells were cultured in a 24-well plate at the density of 2×10^5 cells/cm^2, and the test drug was pretreated in a medium containing 1% FBS and 1% PS for 1 hour. Thereafter, 10 μg/mL of BCECF-AM was treated thereto and reacted at 37° C. for 30 minutes. U937 cells loaded with BCECF and TNF-α (10 ng/mL) were reacted with HT-29 cells previously treated with the test drug at 37° C. for 3 hours. Upon completion of the reaction, the medium was removed, and the culture flask was washed twice with PBS to remove non-adherent U937 cells. In the next step, the cells were lysed by treating with 0.1% Triton X-100 (0.1 M Tris) and reacted at room temperature for 30 minutes. Then, fluorescence was measured and quantified using a fluostar optima microplate reader (BMG Labtechnologies, Germany) (Carvalho et al., 1996; Thapa et al., 2008).

[2] = test system: TNBS-induced inflammatory bowel disease rat model; assay: Oral efficacy in TNBS-induced inflammatory bowel disease rat model; type: in vivo, Sprague Dawley rats
Procedure: Sprague Dawley rats aged 7-8 weeks were purchased from OrientBio (Korea), stabilized with general solid feed for 3 days, and then used in this experiment. Feed and water were freely supplied during the experiment period, and the temperature of the breeding room was maintained at 25±1° C. and the relative humidity at 50±10%. Lighting management was controlled in a 12-hour light-dark cycle by an automatic lighting controller.
After anesthetizing rats that had been fasted for 24 hours with diethyl ether, 0.8 mL of 5% TNBS diluted with 50v/v % ethanol was slowly injected into the lumen of the colon using a 1 mL syringe connected to a polyethylene catheter, and then, the rats were left standing for 60 seconds in an inverted position in order to prevent 5% TNBS from leaking into the anus. For the control group, only vehicle [50v/v % ethanol] was injected in the same manner as in the other groups (Thapa et al., 2008).
In order to investigate the effect of the drug, the drug was administered at a constant time every day for 5 days from the day after the TNBS treatment.
Changes in body weight of each rat were observed from the fasting stage to the TNBS administration and drug administration process using a digital mass meter.
The colon of the rat was extracted, and the tissue 5-6 cm away from the anus was cut into a length of 1 cm, and the weight of the tissue was measured.
The weighed rat tissues were fixed with 4% paraformaldehyde solution, and then transferred to 30% sucrose solution. When the tissues subside, they were taken out and cut into […] thick using a cryomicrotome (Microm HM 450, Thermo Fisher Scientific, Germany) and stored in a cryopreservation solution. After washing the tissue section with KPBS, the tissue section was attached to a slide glass, dried, and then stained with hematoxylin & Eosin and observed under a microscope.

[3] = test system: collagen-induced rheumatoid arthritis animal model; assay: Oral efficacy in collagen-induced rheumatoid arthritis (CIA) mouse model; type: in vivo, DBA/1J mice
Procedure: 12-week-old normal male mice and arthritis-induced DBA/1J mice were purchased from Central Lab. Animal Inc [To induce arthritis, DBA/1J mice were sensitized by injecting a mixed solution of Complete Freund's Adjuvant (CFA; DIFCO, Detroit, MI) and Bovine Type II collagen (1:1, v/v) intradermally at the pinna base at 8 weeks of age, and then, secondary sensitization was performed by intradermal injection at the tail head at 11 weeks of age]. The purchased arthritis mice were acclimatized to the laboratory environment for a week, and then oral administration of the drug was started.
Visual observation of arthritic lesions was performed using the following scores based on a reference (Barnett et al., 1998).
Therefore, the highest score for arthritic lesions was 16 per mouse.
The hind paw thickness, which is one of the pathological indices of rheumatoid arthritis, was measured using a caliper.
The right hind leg of each mouse was extracted, and all skin and muscles were removed, leaving only the bones and joints. The hind leg was fixed in 4% paraformaldehyde solution for 2 days, then immersed in 10% formic acid for 5 days to decalcify, and then immersed in 30% sucrose solution. When the tissue subsided, the articular tissue was cut into […] thick using a cryomicrotome (Microm HM 450, Thermo Fisher Scientific, Germany) and stored in a cryopreservation solution. Staining was performed using the stored tissue sections. After attaching the tissue sections to the slide glass, they were hydrated with 100%, 95%, 70%, and 50% ethanol solutions, and some were stained with safranin and others were stained with hematoxylin/eosin. For safranin staining, the tissue sections were first stained with 0.1% fast green solution, washed with 1% acetic acid solution, and then stained with 1% safranin solution. Thereafter, the tissue sections were dehydrated by immersing in ethanol solutions in the reverse order of hydration, and then preserved in xylene solution and mounting solution, and photographed under a microscope. Hematoxylin/eosin staining was performed in the same manner as in the colon tissue staining. The tissue sections were dehydrated, preserved in xylene solution and mounting solution, and observed under a microscope.
The degree of microscopic tissue damage of the stained articular tissue was measured using the following scores.
After the spleen and draining lymph nodes of the mice were extracted, the number of immune cells was counted. To confirm the distribution of Th1 and Th17 cells, the immune cells obtained from each organ were stimulated using PMA/Ionomycin and Golgi stop.
After staining using an anti-IFN-γ antibody that can identify Th1 cells, an anti-IL-17 antibody that can identify Th17 cells, and an anti-CD8 antibody that can identify cytotoxic T cells, the proportion of inflammatory cells among the total immune cells was confirmed using flow cytometry.

[4] = 0.3 mg/kg, dose-dependence test (Table 7)
[5] = 1 mg/kg, dose-dependence test (Table 7)
[6] = 3 mg/kg, dose-dependence test (Table 7)
[7] = 10 mg/kg, dose-dependence test (Table 7)
[8] = oral 1 mg/kg, 5 days, fixed-dose test (Table 6)

- IC50 ([1]; inhibition of adhesion by TNF-α): 0.3 µM
Compound: Cc1ccc2[nH]c(C(=O)Nc3nc(C)c(O)c(C)c3C)cc2c1 [Compound X-09, N-(5-hydroxy-3,4,6-trimethylpyridin-2-yl)-5-methyl-1H-indole-2-carboxamide]
- inhibition at 1 µM ([1]; test drug 1 μM, TNF-α 10 ng/mL, HT-29/U937, read-out: Inhibitory activity (%)): 82.8%
- Body weight recovery rate (%) [2, 4]: 17.2%
- Intestinal weight recovery rate (%) [2, 4]: 47.0%
- Body weight recovery rate (%) [2, 5]: 69.3%
- Intestinal weight recovery rate (%) [2, 5]: 85.2%
- Body weight recovery rate (%) [2, 6]: 74.6%
- Intestinal weight recovery rate (%) [2, 6]: 91.7%
- Body weight recovery rate (%) [2, 7]: 80.8%
- Intestinal weight recovery rate (%) [2, 7]: 98.9%
- Mucosal damage recovery of rat colon (hematoxylin-eosin score) ([2]; X-09 dose range, FIG. 1): dose-dependent mucosal damage recovery activity
- Morphological observation of colon (visual symptoms, adhesions, congestion) ([2]; after 5 days of drug administration, sulfasalazine 300 mg/kg, X-09 0.3-10 mg/kg): dose-dependent therapeutic activity for enteritis
- Body weight recovery rate (%) [2, 8]: 72.7%
- Intestinal weight recovery rate (%) [2, 8]: 94.0%
- number of inflammatory cells Th1 and Th17 and activated CD8 cells in spleen ([3]; after 35 days of drug administration, FIG. 8B): dose-dependent decrease
- number of inflammatory cells Th1 and Th17 and activated CD8 cells in draining lymph node ([3]; after 35 days of drug administration, FIG. 8C): dose-dependent effect
- hind paw thickness ([3]; oral 50 mg/kg, 35th day of drug administration): 1.70 mm
- arthritis score ([3]; oral 50 mg/kg, 35th day of drug administration, maximum score 16): 7.2
- degree of arthritis (visual observation score) ([3]; oral, up to 35 days, FIG. 5A): significantly improved dose dependently
